From ChEMBL document CHEMBL1201862, “PubChem BioAssay data set” (2004)
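Each compound was tested at five concentrations against cells in 96-well plates for 48 hours. Abbreviation: GI50, concentration required for 50% inhibition of growth.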 Activity calls are given as the source filed them. Rule as the data show it: active = GI50 up to about 1.1 µM and inactive = higher.

Tests used:
Assay in all cases: DTP human tumour cell line panel, 48 h
786-0 = test system: 786-0
OVCAR-8 = test system: OVCAR-8
RPMI-8226 = test system: RPMI-8226
HOP-62 = test system: HOP-62
RXF 393 = test system: RXF 393
UACC-62 = test system: UACC-62
CCRF-CEM = test system: CCRF-CEM
SW-620 = test system: SW-620
LOX IMVI = test system: LOX IMVI
NCI-H23 = test system: NCI-H23
SN12C = test system: SN12C
HOP-92 = test system: HOP-92
SK-MEL-2 = test system: SK-MEL-2
SK-MEL-5 = test system: SK-MEL-5
NCI-H226 = test system: NCI-H226
SF-539 = test system: SF-539
UO-31 = test system: UO-31

Measured: GI50

COc1ccc2[nH]cc(CCNC(=O)[C@](O)(Cc3cn(C)c4ccccc34)[C@@]3(O)OCC(O)C3O)c2c1 (some centres not stated)
inactive: 786-0 > 100 µM | OVCAR-8 > 100 µM | RPMI-8226 39.4 µM | HOP-62 > 100 µM | RXF 393 > 100 µM | UACC-62 58.9 µM | CCRF-CEM 35.8 µM | SW-620 > 100 µM | LOX IMVI > 100 µM | NCI-H23 > 100 µM | SN12C > 100 µM | HOP-92 50.2 µM | SK-MEL-2 > 100 µM | SK-MEL-5 > 100 µM | NCI-H226 > 100 µM | SF-539 40.4 µM

COc1ccc(/C=C2\C(=O)Nc3ccccc32)cc1OC
inactive: 786-0 33.1 µM | OVCAR-8 > 100 µM | RPMI-8226 23.1 µM | HOP-62 > 100 µM | RXF 393 > 100 µM | UACC-62 > 100 µM | CCRF-CEM > 100 µM | SW-620 45.1 µM | LOX IMVI 45.3 µM | NCI-H23 > 100 µM | SN12C > 100 µM | HOP-92 44.6 µM | UO-31 86.3 µM | SK-MEL-2 > 100 µM | SK-MEL-5 64.4 µM | NCI-H226 > 100 µM | SF-539 40.6 µM

O=C1[C@@H]2C(c3ccccc3Br)=NO[C@@H]2C(=O)N1c1ccc(Cc2ccc(N3C(=O)[C@H]4C(c5ccccc5Br)=NO[C@H]4C3=O)cc2)cc1
inactive: 786-0 > 100 µM | OVCAR-8 > 100 µM | RPMI-8226 > 100 µM | HOP-62 > 100 µM | RXF 393 50.2 µM | UACC-62 > 100 µM | CCRF-CEM > 100 µM | SW-620 > 100 µM | LOX IMVI > 100 µM | NCI-H23 > 100 µM | SN12C > 100 µM | HOP-92 > 100 µM | UO-31 54.8 µM | SK-MEL-2 > 100 µM | SK-MEL-5 > 100 µM | NCI-H226 96.4 µM | SF-539 > 100 µM

COC(=O)c1cc2c(=O)n(C)c3ccccc3n2c1C(=O)OC
inactive: 786-0 22.8 µM | OVCAR-8 35.8 µM | RPMI-8226 71.9 µM | HOP-62 16.9 µM | RXF 393 36.2 µM | UACC-62 > 100 µM | CCRF-CEM > 100 µM | SW-620 64.9 µM | LOX IMVI 45.2 µM | NCI-H23 40.7 µM | SN12C 42.5 µM | HOP-92 33 µM | UO-31 63.1 µM | SK-MEL-2 > 100 µM | SK-MEL-5 > 100 µM | NCI-H226 30.3 µM | SF-539 26.1 µM

CC[C@H]1CC(=O)c2c(cc3c(c2O)C(=O)c2ccccc2C3=O)[C@@]1(C#N)C(=O)OC(C)(C)C
inactive: 786-0 4.15 µM | OVCAR-8 2.62 µM | RPMI-8226 3.33 µM | HOP-62 1.77 µM | RXF 393 5.2 µM | UACC-62 4.35 µM | SW-620 3.65 µM | LOX IMVI 3.54 µM | NCI-H23 3.24 µM | SN12C 3.97 µM | HOP-92 9.31 µM | UO-31 2.69 µM | SK-MEL-2 2.17 µM | SK-MEL-5 1.9 µM | NCI-H226 3.32 µM | SF-539 4.13 µM

COc1ccc2c(c1)O[C@@H]1c3ccc(OC)cc3OC[C@H]21
inactive: 786-0 25.4 µM | OVCAR-8 42.1 µM | RPMI-8226 26.9 µM | HOP-62 72.8 µM | RXF 393 22.4 µM | UACC-62 37.8 µM | CCRF-CEM 27.2 µM | SW-620 20.8 µM | LOX IMVI 17.9 µM | NCI-H23 23.2 µM | SN12C 55.2 µM | HOP-92 17.1 µM | UO-31 30.1 µM | SK-MEL-2 23 µM | SK-MEL-5 17.4 µM | NCI-H226 21.5 µM | SF-539 38.1 µM

C=CCC12CCC(=O)[C@@]1(C)CC=C(O)C2=O (some centres not stated)
inactive: 786-0 > 100 µM | OVCAR-8 > 100 µM | RPMI-8226 > 100 µM | HOP-62 > 100 µM | RXF 393 > 100 µM | UACC-62 > 100 µM | CCRF-CEM > 100 µM | SW-620 > 100 µM | LOX IMVI > 100 µM | SN12C > 100 µM | HOP-92 > 100 µM | UO-31 > 100 µM | SK-MEL-5 > 100 µM | NCI-H226 > 100 µM | SF-539 > 100 µM

COC(=O)C1C=CCON2CCc3c(n(S(=O)(=O)c4ccccc4)c4ccccc34)C12 (configuration not stated)
inactive: 786-0 > 87.1 µM | OVCAR-8 50.9 µM | RPMI-8226 14.5 µM | HOP-62 > 39.2 µM | RXF 393 > 67.5 µM | UACC-62 > 49.4 µM | CCRF-CEM 32.5 µM | SW-620 14.8 µM | LOX IMVI 33.3 µM | NCI-H23 > 90.4 µM | SN12C 60 µM | HOP-92 > 80.7 µM | UO-31 42.9 µM | SK-MEL-2 > 100 µM | SK-MEL-5 34.4 µM | NCI-H226 > 46.2 µM | SF-539 > 12.8 µM
